Test results taken from paper PMC5218480 (PLoS ONE, 2017).

System: MV-4-11 cells
Assay: Gene expression microarray analysis (Affymetrix PrimeView) and GSEA
Format: cell-based, human
Set-up: RFU PODN (11730768_x_at) / Fold change /veh PODN (11730768_x_at) / RFU LINC00158 (11744669_a_at) / Fold change /veh LINC00158 (11744669_a_at) / RFU DUSP10 (11751237_a_at) / Fold change /veh DUSP10 (11751237_a_at) / RFU ID3 (11757404_x_at) / Fold change /veh ID3 (11757404_x_at) / RFU PLEKHG5 (11737974_s_at) / Fold change /veh PLEKHG5 (11737974_s_at) / RFU LRRC4B (11730491_at) / Fold change /veh LRRC4B (11730491_at) / RFU GIMAP4 (11747438_a_at) / Fold change /veh GIMAP4 (11747438_a_at) / RFU KRT8 (11758183_x_at) / Fold change /veh KRT8 (11758183_x_at) / RFU CNN1 (11734310_a_at) / Fold change /veh CNN1 (11734310_a_at) / RFU VPS37D (11726825_at) / Fold change /veh VPS37D (11726825_at) / RFU C10orf10 (11716522_x_at) / Fold change /veh C10orf10 (11716522_x_at) / RFU KIR2DL2 /// KIR2DL4 /// KIR2DL5A /// KIR2DL5B /// KIR2DS1 /// KIR2DS2 /// KIR2DS3 /// KIR2DS4 /// KIR3DL3 /// KIR3DL3 /// KIR3DS1 (11738374_at) / Fold change /veh KIR2DL2 /// KIR2DL4 /// KIR2DL5A /// KIR2DL5B /// KIR2DS1 /// KIR2DS2 /// KIR2DS3 /// KIR2DS4 /// KIR3DL3 /// KIR3DL3 /// KIR3DS1 (11738374_at) / RFU C1QL1 (11718748_at) / Fold change /veh C1QL1 (11718748_at) / RFU TMPRSS4 (11747572_a_at) / Fold change /veh TMPRSS4 (11747572_a_at) / RFU HAMP (11756126_x_at) / Fold change /veh HAMP (11756126_x_at) / RFU RNFT2 (11725882_a_at) / Fold change /veh RNFT2 (11725882_a_at) / RFU NR4A2 (11747474_a_at) / Fold change /veh NR4A2 (11747474_a_at) / RFU ABCC12 (11746883_a_at) / Fold change /veh ABCC12 (11746883_a_at) / RFU TMEM136 (11760407_x_at) / Fold change /veh TMEM136 (11760407_x_at) / RFU CLDN22 /// WWC2 (11732394_at) / Fold change /veh CLDN22 /// WWC2 (11732394_at) / RFU HLA-DPB1 (11760878_x_at) / Fold change /veh HLA-DPB1 (11760878_x_at) / RFU SPINT1 (11716480_a_at) / Fold change /veh SPINT1 (11716480_a_at) / RFU GAP43 (11754022_s_at) / Fold change /veh GAP43 (11754022_s_at) / RFU A4GNT (11735810_at) / Fold change /veh A4GNT (11735810_at) / RFU PRB3 (11715151_x_at) / Fold change /veh PRB3 (11715151_x_at) / RFU TUBB4B (11761932_at) / Fold change /veh TUBB4B (11761932_at) / RFU CAPN14 (11732068_a_at) / Fold change /veh CAPN14 (11732068_a_at) / RFU TMCC2 (11721928_a_at) / Fold change /veh TMCC2 (11721928_a_at) / RFU IRGQ (11745062_a_at) / Fold change /veh IRGQ (11745062_a_at) / RFU FAM174B (11720279_a_at) / Fold change /veh FAM174B (11720279_a_at) / RFU TMPRSS4 (11748680_a_at) / Fold change /veh TMPRSS4 (11748680_a_at) / RFU FAM212B (11763350_a_at) / Fold change /veh FAM212B (11763350_a_at) / RFU PLEKHG5 (11743358_a_at) / Fold change /veh PLEKHG5 (11743358_a_at) / RFU ZSCAN30 (11745921_a_at) / Fold change /veh ZSCAN30 (11745921_a_at) / RFU CMKLR1 (11741424_a_at) / Fold change /veh CMKLR1 (11741424_a_at) / RFU LOC101060620 /// MAPK8IP1 (11723275_at) / Fold change /veh LOC101060620 /// MAPK8IP1 (11723275_at) / RFU SPTSSB (11747773_x_at) / Fold change /veh SPTSSB (11747773_x_at) / RFU PRSS12 (11739890_at) / Fold change /veh PRSS12 (11739890_at) / RFU BIN1 (11741810_x_at) / Fold change /veh BIN1 (11741810_x_at) / RFU WNT11 (11732464_a_at) / Fold change /veh WNT11 (11732464_a_at) / RFU C10orf10 (11716521_a_at) / Fold change /veh C10orf10 (11716521_a_at) / RFU C5orf56 (11738089_at) / Fold change /veh C5orf56 (11738089_at) / RFU CYB561 (11721691_x_at) / Fold change /veh CYB561 (11721691_x_at) / RFU ANKRD19P (11752326_a_at) / Fold change /veh ANKRD19P (11752326_a_at) / RFU OR2T12 /// OR2T33 /// OR2T8 (11738714_s_at) / Fold change /veh OR2T12 /// OR2T33 /// OR2T8 (11738714_s_at) / RFU VCAN (11748164_a_at) / Fold change /veh VCAN (11748164_a_at) / RFU JSRP1 (11732532_at) / Fold change /veh JSRP1 (11732532_at) / RFU KRTAP10-11 (11738290_x_at) / Fold change /veh KRTAP10-11 (11738290_x_at) / RFU MYO3A (11730013_a_at) / Fold change /veh MYO3A (11730013_a_at) / RFU EBF3 (11725865_a_at) / Fold change /veh EBF3 (11725865_a_at) / RFU CAMK2N1 (11719241_x_at) / Fold change /veh CAMK2N1 (11719241_x_at) / RFU C5orf56 (11738088_a_at) / Fold change /veh C5orf56 (11738088_a_at) / RFU OLFML3 (11715873_a_at) / Fold change /veh OLFML3 (11715873_a_at) / RFU LOC100653217 /// NTM (11731650_a_at) / Fold change /veh LOC100653217 /// NTM (11731650_a_at) / RFU MAPK11 (11762145_a_at) / Fold change /veh MAPK11 (11762145_a_at) / RFU FIZ1 (11724087_x_at) / Fold change /veh FIZ1 (11724087_x_at) / RFU OASL (11726364_x_at) / Fold change /veh OASL (11726364_x_at) / RFU SOX15 (11748057_x_at) / Fold change /veh SOX15 (11748057_x_at) / RFU CD79A (11719716_a_at) / Fold change /veh CD79A (11719716_a_at) / RFU HIST1H1D (11736915_at) / Fold change /veh HIST1H1D (11736915_at) / RFU CASKIN2 (11723855_a_at) / Fold change /veh CASKIN2 (11723855_a_at) / RFU LOC730098 (11760151_x_at) / Fold change /veh LOC730098 (11760151_x_at) / RFU OR4N2 (11742367_at) / Fold change /veh OR4N2 (11742367_at) / RFU PRRT2 (11749266_a_at) / Fold change /veh PRRT2 (11749266_a_at) / RFU SNX32 (11753110_a_at) / Fold change /veh SNX32 (11753110_a_at) / RFU CDHR5 (11726645_a_at) / Fold change /veh CDHR5 (11726645_a_at) / RFU RCAN1 (11760418_a_at) / Fold change /veh RCAN1 (11760418_a_at) / RFU FAM167A (11723789_a_at) / Fold change /veh FAM167A (11723789_a_at) / RFU FAM26E (11764081_at) / Fold change /veh FAM26E (11764081_at) / RFU ISYNA1 (11749810_s_at) / Fold change /veh ISYNA1 (11749810_s_at) / RFU ACY1 (11761880_at) / Fold change /veh ACY1 (11761880_at) / RFU 11764098_at / Fold change /veh 11764098_at / RFU SAMD14 (11745864_x_at) / Fold change /veh SAMD14 (11745864_x_at) / RFU NPB (11741838_a_at) / Fold change /veh NPB (11741838_a_at) / RFU TMPRSS6 (11731388_a_at) / Fold change /veh TMPRSS6 (11731388_a_at) / RFU KRTAP10-2 (11738614_at) / Fold change /veh KRTAP10-2 (11738614_at) / RFU ARHGAP8 /// PRR5-ARHGAP8 (11727945_x_at) / Fold change /veh ARHGAP8 /// PRR5-ARHGAP8 (11727945_x_at) / RFU KRTAP5-7 /// NADSYN1 (11734609_at) / Fold change /veh KRTAP5-7 /// NADSYN1 (11734609_at) / RFU RASL12 (11751679_a_at) / Fold change /veh RASL12 (11751679_a_at) / RFU CDKN2B (11736163_a_at) / Fold change /veh CDKN2B (11736163_a_at) / RFU PRF1 (11729649_at) / Fold change /veh PRF1 (11729649_at) / RFU, ZNF638 /// ZNF638-IT1 / Fold change vs veh, ZNF638 /// ZNF638-IT1 / RFU, PANK3 / Fold change vs veh, PANK3 / RFU, SH3YL1 / Fold change vs veh, SH3YL1 / RFU, ZEB2 / Fold change vs veh, ZEB2 / RFU, NRIP1 / Fold change vs veh, NRIP1 / RFU, PTTG1IP / Fold change vs veh, PTTG1IP / RFU, CAPN2 / Fold change vs veh, CAPN2 / RFU, MED14 / Fold change vs veh, MED14 / RFU, SNORA58 / Fold change vs veh, SNORA58 / RFU, C1orf63 / Fold change vs veh, C1orf63 / RFU, LRRFIP1 / Fold change vs veh, LRRFIP1 / RFU, NDUFAF7 / Fold change vs veh, NDUFAF7 / RFU, SLC12A2 / Fold change vs veh, SLC12A2 / RFU, IBTK / Fold change vs veh, IBTK / RFU, ESF1 / Fold change vs veh, ESF1 / Fold change vs veh, TMEM50B / RFU, TAOK1 / Fold change vs veh, TAOK1 / RFU, ACBD3 / Fold change vs veh, ACBD3 / RFU, TMA16 / Fold change vs veh, TMA16 / RFU, RWDD3 / Fold change vs veh, RWDD3 / RFU, BCAT1 / Fold change vs veh, BCAT1 / RFU, EDEM3 / Fold change vs veh, EDEM3 / RFU, TMEM33 / Fold change vs veh, TMEM33 / RFU, WDR75 / Fold change vs veh, WDR75 / RFU, AHCTF1 / Fold change vs veh, AHCTF1 / RFU, TFRC / Fold change vs veh, TFRC / RFU, ZDHHC17 / Fold change vs veh, ZDHHC17 / RFU, NOM1 / Fold change vs veh, NOM1 / RFU, ARL8B / Fold change vs veh, ARL8B / RFU, ZBTB11 / Fold change vs veh, ZBTB11 / RFU, TAMM41 / Fold change vs veh, TAMM41 / RFU, KIAA1704 /// LOC100996395 / Fold change vs veh, KIAA1704 /// LOC100996395 / RFU, ING1 / Fold change vs veh, ING1 / RFU, TRMT61B / Fold change vs veh, TRMT61B / RFU, FUBP3 / Fold change vs veh, FUBP3 / RFU, TP53 / Fold change vs veh, TP53 / RFU, TNKS2 / Fold change vs veh, TNKS2 / RFU, ZFP14 / Fold change vs veh, ZFP14 / RFU, ACTR2 / Fold change vs veh, ACTR2 / RFU, PPP3R1 / Fold change vs veh, PPP3R1 / RFU, PIK3R1 / Fold change vs veh, PIK3R1 / RFU, HNRNPA1 / Fold change vs veh, HNRNPA1 / RFU, RNF170 / Fold change vs veh, RNF170 / RFU, ZNF28 / Fold change vs veh, ZNF28 / RFU, RNGTT / Fold change vs veh, RNGTT / RFU, OGT / Fold change vs veh, OGT / RFU, BRD1 / Fold change vs veh, BRD1 / RFU, MARS / Fold change vs veh, MARS / RFU, ZNF655 / Fold change vs veh, ZNF655 / RFU, FAHD1 / Fold change vs veh, FAHD1 / RFU, BDP1 / Fold change vs veh, BDP1 / RFU, LRRCC1 / Fold change vs veh, LRRCC1 / RFU, ARID1A / Fold change vs veh, ARID1A / RFU, ZNF146 / Fold change vs veh, ZNF146 / RFU, ZNF330 / Fold change vs veh, ZNF330 / RFU, GPN3 / Fold change vs veh, GPN3 / RFU, C9orf123 / Fold change vs veh, C9orf123 / RFU, N4BP2L2 / Fold change vs veh, N4BP2L2 / RFU, ARFIP1 / Fold change vs veh, ARFIP1 / RFU, FAM179B / Fold change vs veh, FAM179B / RFU, BCL10 / Fold change vs veh, BCL10 / RFU, UHRF1BP1L / Fold change vs veh, UHRF1BP1L / RFU, BET1 / Fold change vs veh, BET1 / RFU, CNOT2 / Fold change vs veh, CNOT2 / RFU, ZNF268 / Fold change vs veh, ZNF268 / Fold change vs veh, ZNF507 / RFU, DGCR2 / Fold change vs veh, DGCR2 / RFU, WDSUB1 / Fold change vs veh, WDSUB1 / Fold change vs veh, HSP90B1 /// MIR3652 / RFU, ADSS / Fold change vs veh, ADSS / RFU, GK / Fold change vs veh, GK / RFU, ZNF148 / Fold change vs veh, ZNF148 / RFU, TAF9 / Fold change vs veh, TAF9 / RFU, SLC1A5 / Fold change vs veh, SLC1A5 / RFU, SLMO2 / Fold change vs veh, SLMO2 / RFU, ABCC4 / Fold change vs veh, ABCC4 / RFU, LOC101060439 /// RAP1B / Fold change vs veh, LOC101060439 /// RAP1B / RFU, RFX7 / Fold change vs veh, RFX7 / RFU, GTPBP10 / Fold change vs veh, GTPBP10 / RFU, CNEP1R1 / Fold change vs veh, CNEP1R1 / RFU, BIVM-ERCC5 /// ERCC5 / Fold change vs veh, BIVM-ERCC5 /// ERCC5 / RFU, ILF3 / Fold change vs veh, ILF3 / RFU 11762660_at / Fold change /veh 11762660_at / RFU VCAN (11757783_s_at) / Fold change /veh VCAN (11757783_s_at) / RFU DDX43 (11728927_at) / Fold change /veh DDX43 (11728927_at) / RFU KRT8 (11758188_x_at) / Fold change /veh KRT8 (11758188_x_at) / RFU NKD1 (11759106_at) / Fold change /veh NKD1 (11759106_at) / RFU SRD5A1 (11742802_a_at) / Fold change /veh SRD5A1 (11742802_a_at) / RFU TPSAB1 /// TPSB2 (11721975_s_at) / Fold change /veh TPSAB1 /// TPSB2 (11721975_s_at) / RFU GSTM3 (11746129_a_at) / Fold change /veh GSTM3 (11746129_a_at) / RFU IL23R (11737362_x_at) / Fold change /veh IL23R (11737362_x_at) / RFU TMEM51 (11727254_a_at) / Fold change /veh TMEM51 (11727254_a_at) / RFU PIWIL2 (11732686_x_at) / Fold change /veh PIWIL2 (11732686_x_at) / RFU ORM1 (11744905_x_at) / Fold change /veh ORM1 (11744905_x_at) / RFU CCDC152 (11743942_at) / Fold change /veh CCDC152 (11743942_at) / RFU ECM1 (11717891_a_at) / Fold change /veh ECM1 (11717891_a_at) / RFU IL23R (11748794_a_at) / Fold change /veh IL23R (11748794_a_at) / RFU TNFAIP8L3 (11732012_x_at) / Fold change /veh TNFAIP8L3 (11732012_x_at) / RFU MBOAT4 (11741988_at) / Fold change /veh MBOAT4 (11741988_at) / RFU 11764193_at / Fold change /veh 11764193_at / RFU TMEM53 (11763286_at) / Fold change /veh TMEM53 (11763286_at) / RFU MAGEB2 (11727129_at) / Fold change /veh MAGEB2 (11727129_at) / RFU TMEM200A (11744735_a_at) / Fold change /veh TMEM200A (11744735_a_at) / RFU CCDC152 (11751479_a_at) / Fold change /veh CCDC152 (11751479_a_at) / RFU FAM211A (11726209_a_at) / Fold change /veh FAM211A (11726209_a_at) / RFU RGS16 (11746705_a_at) / Fold change /veh RGS16 (11746705_a_at) / RFU VCAN (11755009_s_at) / Fold change /veh VCAN (11755009_s_at) / RFU RHOB (11743442_s_at) / Fold change /veh RHOB (11743442_s_at) / RFU RGS16 (11720943_a_at) / Fold change /veh RGS16 (11720943_a_at) / RFU RGS16 (11720944_at) / Fold change /veh RGS16 (11720944_at) / RFU, VPS4B / Fold change vs veh, VPS4B / RFU, CREB1 / Fold change vs veh, CREB1 / RFU, DNAJC13 / Fold change vs veh, DNAJC13 / RFU, GNAQ / Fold change vs veh, GNAQ / RFU, CDK5R1 / Fold change vs veh, CDK5R1 / RFU, ZRANB3 / Fold change vs veh, ZRANB3 / RFU, CUL4A / Fold change vs veh, CUL4A / RFU, CCNY / Fold change vs veh, CCNY / RFU, UFL1 / Fold change vs veh, UFL1 / RFU, COG3 / Fold change vs veh, COG3 / RFU, DIAPH2 / Fold change vs veh, DIAPH2 / RFU, SKA2 / Fold change vs veh, SKA2 / RFU, AFF3 / Fold change vs veh, AFF3 / RFU, LMF1 / Fold change vs veh, LMF1 / RFU, IPO11 / Fold change vs veh, IPO11 / RFU, DFFB / Fold change vs veh, DFFB / RFU, FOXP1 / Fold change vs veh, FOXP1 / RFU, CARD8 / Fold change vs veh, CARD8 / RFU, STRN3 / Fold change vs veh, STRN3 / RFU, ADK / Fold change vs veh, ADK / RFU, RASSF2 / Fold change vs veh, RASSF2 / RFU, WIPF1 / Fold change vs veh, WIPF1 / RFU, LARP1B / Fold change vs veh, LARP1B / RFU, RASA1 / Fold change vs veh, RASA1 / RFU, RB1 / Fold change vs veh, RB1 / RFU, PPFIA1 / Fold change vs veh, PPFIA1 / RFU, MAT2A / Fold change vs veh, MAT2A / RFU, CCT5 / Fold change vs veh, CCT5 / RFU, WDR92 / Fold change vs veh, WDR92 / RFU, CUX1 / Fold change vs veh, CUX1 / RFU, TTC7A / Fold change vs veh, TTC7A / RFU, TMEM135 / Fold change vs veh, TMEM135 / RFU, DEPTOR / Fold change vs veh, DEPTOR / RFU, CPM / Fold change vs veh, CPM / RFU, DNAJB6 / Fold change vs veh, DNAJB6 / RFU, CACNA2D3 / Fold change vs veh, CACNA2D3 / RFU, DTX4 / Fold change vs veh, DTX4 / RFU, TFCP2 / Fold change vs veh, TFCP2 / RFU, GMCL1 /// GMCL1P1 / Fold change vs veh, GMCL1 /// GMCL1P1 / RFU, AEBP2 / Fold change vs veh, AEBP2 / RFU, SNHG1 /// SNORD22 /// SNORD25 /// SNORD26 /// SNORD27 /// SNORD28 /// SNORD29 /// SNORD31 / Fold change vs veh, SNHG1 /// SNORD22 /// SNORD25 /// SNORD26 /// SNORD27 /// SNORD28 /// SNORD29 /// SNORD31 / Fold change (Aza/veh), C12orf56 (ProbeSet 11735607_a_at) / Fold change (ACY-1035/veh), C12orf56 (ProbeSet 11735607_a_at) / Fold change (Aza/veh), FGFR1OP (ProbeSet 11751329_s_at) / Fold change (ACY-1035/veh), FGFR1OP (ProbeSet 11751329_s_at) / Fold change (Aza/veh), VPS36 (ProbeSet 11739960_a_at) / Fold change (ACY-1035/veh), VPS36 (ProbeSet 11739960_a_at) / RFU SYPL1 (11715823_x_at) / Fold change /veh SYPL1 (11715823_x_at) / RFU IGFBP7 (11715501_s_at) / Fold change /veh IGFBP7 (11715501_s_at) / RFU REEP3 (11722064_at) / Fold change /veh REEP3 (11722064_at) / RFU IGLL1 (11728026_x_at) / Fold change /veh IGLL1 (11728026_x_at): dose or concentration left out as unconfirmed
Conditions: ProbeSet 11741311_a_at; LIST B

SMILES: Nc1ncn([C@@H]2O[C@H](CO)[C@@H](O)[C@H]2O)c(=O)n1 [azacitidine]
- RFU, ZNF655: 32.83 RFU
